Experiments:
Type in all cases: in vivo
[1] = test system: Amaranthus retroflexus; test: Test Example 5: herbicidal effect by foliage application, plastic box (symbol N); settings: 320 g/ha, 3 weeks after application
In short: (§1)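 Visual herbicidal score, taken three weeks post-application, of seedlings sprayed on the foliage with water-diluted emulsion at a predetermined amount; plants were 14 days old, greenhouse-raised at 25° C. to 30° C.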

[2] = test system: Abutilon theophrasti; test: Test Example 5: herbicidal effect by foliage application, plastic box (symbol M); settings: 320 g/ha, 3 weeks after application
In short: as §1

[3] = test system: rapeseed; test: Test Example 5: effect on crop by foliage application, plastic box (symbol g); settings: 320 g/ha, 3 weeks after application
In short: (§2)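 Crop and weed seeds sown in spots in sterilized diluvial soil in plastic boxes and covered with about 1.5 cm soil. Plants raised in a greenhouse at 25° C. to 30° C. for foliar application.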

[4] = test system: beet; test: Test Example 5: effect on crop by foliage application, plastic box (symbol f); settings: 320 g/ha, 3 weeks after application
In short: as §2

[5] = test system: Setaria viridis; test: Test Example 4: herbicidal effect by soil treatment (symbol G); settings: application herbicide amount 320 g/ha
In short: (§3)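 Seeds were sown in sterilized diluvial soil, covered with about 1.5 cm of soil, and the soil surface was sprayed with a water-diluted emulsion of the compound at a predetermined rate. Plants grew in a greenhouse at 25° C. to 30° C.; effects were scored visually 3 weeks after application.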

[6] = test system: Galium spurium; test: Test Example 4: herbicidal effect by soil treatment (symbol Q); settings: application herbicide amount 320 g/ha
In short: as §3

[7] = test system: Echinochloa oryzacola Vasing.; test: Test Example 1: herbicidal activity, application before weed generation in submerged conditions (symbol A); settings: application herbicide amount 320 g/ha
In short: (§4)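 Weeds are sown into submerged alluvial soil alongside transplanted 2.5-leaf rice, and the compound, as an emulsion diluted to a set rate, is applied onto the water before emergence. Rating on the 0–5 herbicidal-ratio scale follows 3 weeks of greenhouse growth at 25–30 °C.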

[8] = test system: Echinochloa crus-galli var. crus-galli; test: Test Example 3: herbicidal effect by foliage application, Wagner pot (symbol H); settings: application herbicide amount 320 g/ha
In short: (§5)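 Plants sown in submerged alluvial soil (water depth 0.1–0.5 cm) in a 25–30 °C greenhouse and grown 14 days. An emulsion of the compound diluted in water to a set herbicide amount was sprayed uniformly on foliage. Effect on each plant scored 3 weeks after application.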

[9] = test system: wheat; test: Test Example 4: effect on crop by soil treatment (symbol e); settings: application herbicide amount 320 g/ha
In short: (§6)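 Crop seeds, among them rice, wheat, beet and rapeseed, were sown in sterilized diluvial soil and covered with about 1.5 cm of soil. Boxes were kept in a greenhouse at 25° C. to 30° C. for plant growth.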

[10] = test system: Alopecurus myosuroides; test: Test Example 4: herbicidal effect by soil treatment (symbol J); settings: application herbicide amount 320 g/ha
In short: as §3

[11] = test system: Cyperus difformis; test: Test Example 3: herbicidal effect by foliage application, Wagner pot (symbol E); settings: application herbicide amount 320 g/ha
In short: as §5

[12] = test system: Stellaria media; test: Test Example 5: herbicidal effect by foliage application, plastic box (symbol P); settings: 320 g/ha, 3 weeks after application
In short: as §1

[13] = test system: Scirpus juncoides; test: Test Example 1: herbicidal activity, application before weed generation in submerged conditions (symbol B); settings: application herbicide amount 320 g/ha
In short: as §4

[14] = test system: Alopecurus myosuroides; test: Test Example 5: herbicidal effect by foliage application, plastic box (symbol J); settings: 320 g/ha, 3 weeks after application
In short: as §1

[15] = test system: Digitaria ciliaris; test: Test Example 5: herbicidal effect by foliage application, plastic box (symbol F); settings: 320 g/ha, 3 weeks after application
In short: as §1

[16] = test system: rapeseed; test: Test Example 4: effect on crop by soil treatment (symbol g); settings: application herbicide amount 320 g/ha
In short: as §6

[17] = test system: Apera spica-venti; test: Test Example 5: herbicidal effect by foliage application, plastic box (symbol L); settings: 320 g/ha, 3 weeks after application
In short: as §1

[18] = test system: Apera spica-venti; test: Test Example 4: herbicidal effect by soil treatment (symbol L); settings: application herbicide amount 320 g/ha
In short: as §3

SMILES | N: Amaranthus retroflexus, herbicidal effect (criteria of Test Example 1) [1] | M: Abutilon theophrasti, herbicidal effect (criteria of Test Example 1) [2] | g: rapeseed, effect on crop (criteria of Test Example 1) [3] | f: beet, effect on crop (criteria of Test Example 1) [4] | Herbicidal effect grade, G: Setaria viridis [5] | Herbicidal effect grade, Q: Galium spurium [6] | Herbicidal effect grade, A: Echinochloa oryzacola Vasing. [7] | herbicidal effect on H (Echinochloa crus-galli var. crus-galli), grade 0-5 [8] | Effect on crop grade, e: wheat [9] | Herbicidal effect grade, J: Alopecurus myosuroides [10] | herbicidal effect on E, grade 0-5 [11] | P: Stellaria media, herbicidal effect (criteria of Test Example 1) [12] | Herbicidal effect grade, B: Scirpus juncoides [13] | J: Alopecurus myosuroides, herbicidal effect (criteria of Test Example 1) [14] | F: Digitaria ciliaris, herbicidal effect (criteria of Test Example 1) [15] | Effect on crop grade, g: rapeseed [16] | L: Apera spica-venti, herbicidal effect (criteria of Test Example 1) [17] | G: Setaria viridis, herbicidal effect grade [5] | L: Apera spica-venti, herbicidal effect grade [18] | Q: Galium spurium, herbicidal effect grade [6] | further results
CON=C(C)CC1CC(O)=C(c2c(C)cc(-c3cc(Cl)cc(Cl)c3)cc2C)C1=O (centres unmarked) [6-087] | 0 (Herbicidal ratio of 5% or lower (almost no effect)) | 0 (Herbicidal ratio of 5% or lower (almost no effect)) | 4 (Herbicidal ratio of 70% or higher and lower than 90%) | 0 (Herbicidal ratio of 5% or lower (almost no effect)) | 5 (Herbicidal ratio of 90% or more (almost completely withered)) | 0 (Herbicidal ratio of 5% or lower (almost no effect)) | 5 (Herbicidal ratio of 90% or more (almost completely withered)) | 5 (Herbicidal ratio of 90% or more (almost completely withered)) | 0 (Herbicidal ratio of 5% or lower (almost no effect)) | 4 (Herbicidal ratio of 70% or higher and lower than 90%) | 0 (Herbicidal ratio of 5% or lower (almost no effect)) | 1 (Herbicidal ratio of 5% or higher and lower than 20%) | 0 (Herbicidal ratio of 5% or lower (almost no effect)) | 4 (Herbicidal ratio of 70% or higher and lower than 90%) | 5 (Herbicidal ratio of 90% or more (almost completely withered)) | 1 (Herbicidal ratio of 5% or higher and lower than 20%) | 3 (Herbicidal ratio of 40% or higher and lower than 70%) |  |  |  | 
CCc1cc(Br)cc(C)c1C1=C(O)CC(C(C(C)=O)C(=O)OC)C1=O (centres unmarked) [7-001] | 0 (Herbicidal ratio of 5% or lower (almost no effect)) | 0 (Herbicidal ratio of 5% or lower (almost no effect)) | 0 (Herbicidal ratio of 5% or lower (almost no effect)) | 0 (Herbicidal ratio of 5% or lower (almost no effect)) | 4 (Herbicidal ratio of 70% or higher and lower than 90%) | 0 (Herbicidal ratio of 5% or lower (almost no effect)) | 0 (Herbicidal ratio of 5% or lower (almost no effect)) | 4 (Herbicidal ratio of 70% or higher and lower than 90%) | 0 (Herbicidal ratio of 5% or lower (almost no effect)) | 0 (Herbicidal ratio of 5% or lower (almost no effect)) | 0 (Herbicidal ratio of 5% or lower (almost no effect)) |  | 0 (Herbicidal ratio of 5% or lower (almost no effect)) | 3 (Herbicidal ratio of 40% or higher and lower than 70%) | 5 (Herbicidal ratio of 90% or more (almost completely withered)) | 0 (Herbicidal ratio of 5% or lower (almost no effect)) | 3 (Herbicidal ratio of 40% or higher and lower than 70%) |  |  |  | Herbicidal effect grade, L: Apera spica-venti [18]: 0 (Herbicidal ratio of 5% or lower (almost no effect))
CCc1cc(-c2ccc(Cl)cc2)cc(C)c1C1=C(O)CC(CC(C)=NOC)C1=O (centres unmarked) [6-066] | 3 (Herbicidal ratio of 40% or higher and lower than 70%) | 3 (Herbicidal ratio of 40% or higher and lower than 70%) |  | 0 (Herbicidal ratio of 5% or lower (almost no effect)) |  |  | 5 (Herbicidal ratio of 90% or more (almost completely withered)) | 5 (Herbicidal ratio of 90% or more (almost completely withered)) |  |  | 5 (Herbicidal ratio of 90% or more (almost completely withered)) | 3 (Herbicidal ratio of 40% or higher and lower than 70%) | 3 (Herbicidal ratio of 40% or higher and lower than 70%) | 5 (Herbicidal ratio of 90% or more (almost completely withered)) | 5 (Herbicidal ratio of 90% or more (almost completely withered)) |  | 5 (Herbicidal ratio of 90% or more (almost completely withered)) | 5 (Herbicidal ratio of 90% or more (almost completely withered)) | 5 (Herbicidal ratio of 90% or more (almost completely withered)) | 0 (Herbicidal ratio of 5% or lower (almost no effect)) | e: wheat, effect on crop grade [9]: 4 (Herbicidal ratio of 70% or higher and lower than 90%); J: Alopecurus myosuroides, herbicidal effect grade [10]: 5 (Herbicidal ratio of 90% or more (almost completely withered)); g: rapeseed, effect on crop grade [16]: 2 (Herbicidal ratio of 20% or higher and lower than 40%)
CCc1cc(-c2ccc(Cl)cc2)cc(C)c1C1=C(OC(=O)N2CCOCC2)CC(CC(C)=NOC)C1=O (mixture of isomers) [6-064] |  | 4 (Herbicidal ratio of 70% or higher and lower than 90%) | 3 (Herbicidal ratio of 40% or higher and lower than 70%) | 0 (Herbicidal ratio of 5% or lower (almost no effect)) |  |  | 5 (Herbicidal ratio of 90% or more (almost completely withered)) | 5 (Herbicidal ratio of 90% or more (almost completely withered)) |  |  | 0 (Herbicidal ratio of 5% or lower (almost no effect)) | 0 (Herbicidal ratio of 5% or lower (almost no effect)) | 0 (Herbicidal ratio of 5% or lower (almost no effect)) | 3 (Herbicidal ratio of 40% or higher and lower than 70%) | 5 (Herbicidal ratio of 90% or more (almost completely withered)) |  | 5 (Herbicidal ratio of 90% or more (almost completely withered)) | 5 (Herbicidal ratio of 90% or more (almost completely withered)) | 5 (Herbicidal ratio of 90% or more (almost completely withered)) | 0 (Herbicidal ratio of 5% or lower (almost no effect)) | e: wheat, effect on crop grade [9]: 0 (Herbicidal ratio of 5% or lower (almost no effect)); J: Alopecurus myosuroides, herbicidal effect grade [10]: 4 (Herbicidal ratio of 70% or higher and lower than 90%); g: rapeseed, effect on crop grade [16]: 0 (Herbicidal ratio of 5% or lower (almost no effect))

From patent publication US11000033B2, “Ketone or oxime compound, and herbicide” (NISSAN CHEMICAL CORPORATION, priority 2014, dated 2021)
